Test results taken from ChEMBL document CHEMBL5385845, “Novel coumarin aminophosphonates as potential multitargeting antibacterial agents against Staphylococcus aureus” (Eur J Med Chem, 2023).
≈ marks a conversion by molar mass, not a printed value.

Legend:
Type in all cases: functional
Staphylococcus aureus [1] = experiment: Antibacterial activity against methicillin resistant Staphylococcus aureus N315 assessed as inhibition of bacterial growth
Enterococcus faecalis = experiment: Antibacterial activity against Enterococcus faecalis assessed as inhibition of bacterial growth
Staphylococcus aureus [2] = experiment: Antibacterial activity against Staphylococcus aureus assessed as inhibition of bacterial growth
Staphylococcus aureus [3] = experiment: Antibacterial activity against Staphylococcus aureus ATCC 25923 assessed as inhibition of bacterial growth
Staphylococcus aureus [4] = experiment: Antibacterial activity against Staphylococcus aureus ATCC 29213 assessed as inhibition of bacterial growth
Klebsiella pneumoniae = experiment: Antibacterial activity against Klebsiella pneumoniae assessed as inhibition of bacterial growth
Escherichia coli [5] = experiment: Antibacterial activity against Escherichia coli assessed as inhibition of bacterial growth
Pseudomonas aeruginosa [6] = experiment: Antibacterial activity against Pseudomonas aeruginosa assessed as inhibition of bacterial growth
Acinetobacter baumannii = experiment: Antibacterial activity against Acinetobacter baumannii assessed as inhibition of bacterial growth
Pseudomonas aeruginosa [7] = experiment: Antibacterial activity against Pseudomonas aeruginosa ATCC 27853 assessed as inhibition of bacterial growth
Escherichia coli [8] = experiment: Antibacterial activity against Escherichia coli ATCC 25922 assessed as inhibition of bacterial growth

Row | SMILES | MIC (Staphylococcus aureus [1]) [µg/mL] | MIC (Enterococcus faecalis) [µg/mL] | MIC (Staphylococcus aureus [2]) [µg/mL] | MIC (Staphylococcus aureus [3]) [µg/mL] | MIC (Staphylococcus aureus [4]) [µg/mL] | MIC (Klebsiella pneumoniae) [µg/mL] | MIC (Escherichia coli [5]) [µg/mL] | MIC (Pseudomonas aeruginosa [6]) [µg/mL] | MIC (Acinetobacter baumannii) [µg/mL] | MIC (Pseudomonas aeruginosa [7]) [µg/mL] | MIC (Escherichia coli [8]) [µg/mL]
1 | CCOP(=O)(OCC)C(Nc1ccc2c(C)cc(=O)oc2c1)c1cc(O)c2c(c1)C(=O)c1cccc(O)c1C2=O (centres undefined) | 4 (≈ 7.1 µM) | 32 (≈ 56.8 µM) | 8 (≈ 14.2 µM) | 4 (≈ 7.1 µM) | 8 (≈ 14.2 µM) | 32 (≈ 56.8 µM) | 8 (≈ 14.2 µM) | 8 (≈ 14.2 µM) | 16 (≈ 28.4 µM) | 8 (≈ 14.2 µM) | 4 (≈ 7.1 µM)
2 | CCCCc1nc(Cl)c(C(Nc2ccc3c(C)cc(=O)oc3c2)P(=O)(OCC)OCC)[nH]1 (centres undefined) | 128 (≈ 266 µM) | 64 (≈ 133 µM) | 32 (≈ 66.4 µM) | 16 (≈ 33.2 µM) | 256 (≈ 531 µM) | 128 (≈ 266 µM) | 32 (≈ 66.4 µM) | 64 (≈ 133 µM) | 128 (≈ 266 µM) | 256 (≈ 531 µM) | 64 (≈ 133 µM)
3 | CCOP(=O)(OCC)C(Nc1ccc2c(C)c(Cl)c(=O)oc2c1)c1cccc(O)c1 (centres undefined) | 32 (≈ 70.8 µM) | 64 (≈ 142 µM) | 16 (≈ 35.4 µM) | 32 (≈ 70.8 µM) | 32 (≈ 70.8 µM) | 128 (≈ 283 µM) | 128 (≈ 283 µM) | 64 (≈ 142 µM) | 32 (≈ 70.8 µM) | 128 (≈ 283 µM) | 16 (≈ 35.4 µM)
4 | CCOP(=O)(OCC)C(Nc1ccc2c(C)cc(=O)oc2c1)c1ccc(O)c(OC)c1 (centres undefined) | 128 (≈ 286 µM) | 16 (≈ 35.8 µM) | 64 (≈ 143 µM) | 64 (≈ 143 µM) | 128 (≈ 286 µM) | 256 (≈ 572 µM) | 128 (≈ 286 µM) | 256 (≈ 572 µM) | 128 (≈ 286 µM) | 64 (≈ 143 µM) | 64 (≈ 143 µM)
5 | CCOP(=O)(OCC)C(Nc1ccc2c(C)cc(=O)oc2c1)c1ccc(Cl)cc1 (centres undefined) | 128 (≈ 294 µM) | 64 (≈ 147 µM) | 256 (≈ 587 µM) | 4 (≈ 9.18 µM) | 128 (≈ 294 µM) | 64 (≈ 147 µM) | 128 (≈ 294 µM) | 16 (≈ 36.7 µM) | 64 (≈ 147 µM) | 8 (≈ 18.4 µM) | 4 (≈ 9.18 µM)
6 | CCOP(=O)(OCC)C(Nc1ccc2c(C)cc(=O)oc2c1)c1ccc(C(F)(F)F)cc1 (centres undefined) | 256 (≈ 545 µM) | 128 (≈ 273 µM) | 256 (≈ 545 µM) | 256 (≈ 545 µM) | 256 (≈ 545 µM) | 128 (≈ 273 µM) | 128 (≈ 273 µM) | 64 (≈ 136 µM) | 128 (≈ 273 µM) | 64 (≈ 136 µM) | 64 (≈ 136 µM)
7 | CCCCc1nc(Cl)c(C(Nc2ccc3c(C)cc(=O)oc3c2)P(=O)(OCC)OCC)n1Cc1ccc(Cl)cc1Cl (centres undefined) | 128 (≈ 200 µM) | 128 (≈ 200 µM) | 64 (≈ 99.9 µM) | 32 (≈ 49.9 µM) | 128 (≈ 200 µM) | 128 (≈ 200 µM) | 64 (≈ 99.9 µM) | 64 (≈ 99.9 µM) | 128 (≈ 200 µM) | 256 (≈ 399 µM) | 128 (≈ 200 µM)
8 | CCOP(=O)(OCC)C(Nc1ccc2c(C)cc(=O)oc2c1)c1nccs1 (centres undefined) | 64 (≈ 157 µM) | 128 (≈ 313 µM) | 16 (≈ 39.2 µM) | 128 (≈ 313 µM) | 32 (≈ 78.4 µM) | 256 (≈ 627 µM) | 128 (≈ 313 µM) | 64 (≈ 157 µM) | 32 (≈ 78.4 µM) | 8 (≈ 19.6 µM) | 64 (≈ 157 µM)
9 | CCOP(=O)(OCC)C(Nc1ccc2c(C)cc(=O)oc2c1)c1ccc(C#N)cc1 (centres undefined) | 128 (≈ 300 µM) | 64 (≈ 150 µM) | 128 (≈ 300 µM) | 256 (≈ 600 µM) | 64 (≈ 150 µM) | 128 (≈ 300 µM) | 128 (≈ 300 µM) | 64 (≈ 150 µM) | 128 (≈ 300 µM) | 128 (≈ 300 µM) | 128 (≈ 300 µM)
10 | CCOP(=O)(OCC)C(Nc1ccc2c(C)cc(=O)oc2c1)c1ccc(Cl)cc1Cl (centres undefined) | 128 (≈ 272 µM) | 64 (≈ 136 µM) | 128 (≈ 272 µM) | 128 (≈ 272 µM) | 128 (≈ 272 µM) | 64 (≈ 136 µM) | 32 (≈ 68 µM) | 128 (≈ 272 µM) | 64 (≈ 136 µM) | 64 (≈ 136 µM) | 128 (≈ 272 µM)
11 | CCOP(=O)(OCC)C(Nc1cc2ccccc2oc1=O)c1cccc(O)c1 (centres undefined) | 32 (≈ 79.3 µM) | 16 (≈ 39.7 µM) | 8 (≈ 19.8 µM) | 8 (≈ 19.8 µM) | 32 (≈ 79.3 µM) | 128 (≈ 317 µM) | 64 (≈ 159 µM) | 32 (≈ 79.3 µM) | 16 (≈ 39.7 µM) | 4 (≈ 9.92 µM) | 32 (≈ 79.3 µM)
12 | CCOP(=O)(OCC)C(Nc1ccc2c(C)cc(=O)oc2c1)c1ccccc1F (centres undefined) | 64 (≈ 153 µM) | 64 (≈ 153 µM) | 16 (≈ 38.2 µM) | 64 (≈ 153 µM) | 64 (≈ 153 µM) | 128 (≈ 305 µM) | 128 (≈ 305 µM) | 256 (≈ 610 µM) | 64 (≈ 153 µM) | 32 (≈ 76.3 µM) | 64 (≈ 153 µM)
13 | CCOP(=O)(OCC)C(Nc1ccc2c(C)cc(=O)oc2c1)c1ccc(C(=O)O)cc1 (centres undefined) | 256 (≈ 575 µM) | 128 (≈ 287 µM) | 64 (≈ 144 µM) | 128 (≈ 287 µM) | 64 (≈ 144 µM) | 64 (≈ 144 µM) | 32 (≈ 71.8 µM) | 16 (≈ 35.9 µM) | 128 (≈ 287 µM) | 64 (≈ 144 µM) | 256 (≈ 575 µM)
14 | CCCCc1nc(Cl)c(C(Nc2ccc3c(C)cc(=O)oc3c2)P(=O)(OCC)OCC)n1Cc1ccc(F)cc1F (centres undefined) | 64 (≈ 105 µM) | 128 (≈ 211 µM) | 32 (≈ 52.6 µM) | 128 (≈ 211 µM) | 64 (≈ 105 µM) | 128 (≈ 211 µM) | 128 (≈ 211 µM) | 256 (≈ 421 µM) | 64 (≈ 105 µM) | 128 (≈ 211 µM) | 128 (≈ 211 µM)
